Measured values published in ChEMBL document CHEMBL5352391, “New structural classes of antimalarials” (Eur J Med Chem, 2022).
Values after ≈ are worked out from the molar mass of the structure shown.

Key:
[1] = Retention time of the compound by HPLC-MS analysis; type: physicochemical
[2] = tested on: Plasmodium falciparum; assay: Antiplasmodial activity against Plasmodium falciparum K1 infected in human erythrocyte assessed as inhibition of parasite growth incubated for 72 hrs by [3H]-hypoxanthine incorporation based liquid scintillation counting method; type: functional, organism-based
[3] = tested on: Plasmodium falciparum; assay: Antimalarial activity against Plasmodium falciparum 3D7 assessed as reduction of parasite growth at 25 uM incubated for 96 hrs by SYBR green I dye based fluorescence assay relative to control; type: functional; parameters: scale not given: the % may be the effect or the level left
[4] = tested on: Plasmodium falciparum; assay: Antiplasmodial activity against chloroquine resistant Plasmodium falciparum K14 assessed as inhibition of parasite growth incubated for 42 hrs by [3H]-hypoxanthine incorporation based microbeta scintillation counting method; type: functional, organism-based
[5] = tested on: Plasmodium berghei; assay: Antimalarial activity against Plasmodium berghei ANKA infected in Swiss albino mouse assessed as reduction in parasitemia at 50 micromol/kg,po administrated for 4 days by Giemsa staining based microscopic analysis; type: functional; parameters: scale not given: the % may be the effect or the level left; conditions: dose 50 µmol/kg, time 4 day
[6] = tested on: Plasmodium falciparum; assay: Antiplasmodial activity against chloroquine resistant Plasmodium falciparum RKL-2 assessed as inhibition of parasite growth incubated for 36 to 40 hrs by Giemsa staining based microscopic analysis; type: functional, organism-based
[7] = tested on: Plasmodium falciparum; assay: Antiplasmodial activity against erythrocytic stage of Plasmodium falciparum 3D7 assessed as reduction of parasite growth incubated for 100 hrs by SYBR Green dye based fluorescence assay; type: functional, organism-based; conditions: 3D7, 100 h
[8] = tested on: Plasmodium falciparum; assay: Antiplasmodial activity against erythrocytic stage of Plasmodium falciparum NF54 assessed as reduction of parasite growth incubated for 48 hrs by [3H]-hypoxanthine incorporation based beta-plate liquid scintillation counting method; type: functional, organism-based
[9] = tested on: Plasmodium falciparum; assay: Antiplasmodial activity against erythrocytic stage of Plasmodium falciparum K1 assessed as reduction of parasite growth incubated for 48 hrs by [3H]-hypoxanthine incorporation based beta-plate liquid scintillation counting method; type: functional, organism-based
[10] = Cytotoxicity against human HepG2 cells assessed as reduction in cell viability incubated for 72 hrs by MTT assay; type: toxicity, cell-based
[11] = Selectivity index, ratio of CC50 for cytotoxicity against human HepG2 cells by MTT assay to EC50 for antiplasmodial activity against erythrocytic stage of Plasmodium falciparum 3D7 by SYBR Green dye based fluorescence assay; type: toxicity, cell-based; conditions: read-out: Ratio CC50/EC50
[12] = Selectivity index, ratio of CC50 for cytotoxicity against human HepG2 cells by MTT assay to EC50 for antiplasmodial activity against erythrocytic stage of Plasmodium falciparum NF54 by [3H]-hypoxanthine incorporation based liquid scintillation counting method; type: toxicity, cell-based; conditions: read-out: Ratio CC50/EC50
[13] = Selectivity index, ratio of CC50 for cytotoxicity against human HepG2 cells by MTT assay to EC50 for antiplasmodial activity against erythrocytic stage of Plasmodium falciparum K1 by [3H]-hypoxanthine incorporation based liquid scintillation counting method; type: toxicity, cell-based; conditions: read-out: Ratio CC50/EC50
[14] = tested on: Plasmodium falciparum; assay: Antiplasmodial activity against chloroquine sensitive Plasmodium falciparum GC03 infected in human erythrocyte assessed as inhibition of parasite growth incubated for 48 hrs by SYBR Green dye based fluorescence assay; type: functional, organism-based
[15] = tested on: Plasmodium falciparum; assay: Antiplasmodial activity against Plasmodium falciparum 3D7 assessed as inhibition of parasite growth incubated for 72 hrs by LDH assay based spectrofluorometric analysis; type: functional, organism-based; conditions: 3D7, 72 h
[16] = tested on: Plasmodium falciparum; assay: Antiplasmodial activity against chloroquine resistant Plasmodium falciparum Dd2 assessed as inhibition of parasite growth incubated for 72 hrs by LDH assay based spectrofluorometric analysis; type: functional, organism-based; conditions: Dd2, 72 h
[17] = tested on: Plasmodium falciparum; assay: Antimalarial activity against Plasmodium falciparum 3D7 assessed as reduction of parasite growth incubated for 96 hrs by SYBR green I dye based fluorescence assay; type: functional, organism-based; conditions: 3D7, 96 h
[18] = tested on: Plasmodium falciparum; assay: Antiplasmodial activity against mixture of chloroquine resistant Plasmodium falciparum RKL 303-chloroquine sensitive Plasmodium falciparum 3D7 infected in human erythrocyte assessed as inhibition of parasite growth incubated for 48 hrs by Giemsa staining based microscopic analysis; type: functional, organism-based
[19] = tested on: Plasmodium falciparum; assay: Antiplasmodial activity against chloroquine sensitive Plasmodium falciparum 3D7 assessed as inhibition of parasite growth incubated for 48 hrs by Malstat reagent based spectrophotometric; type: functional, organism-based; conditions: 3D7, 48 h
[20] = tested on: Plasmodium falciparum; assay: Antiplasmodial activity against chloroquine resistant Plasmodium falciparum K14 assessed as inhibition of parasite growth incubated for 48 hrs by [3H]-hypoxanthine incorporation based microbeta scintillation counting method; type: functional, organism-based
[21] = tested on: Plasmodium falciparum; assay: Antiplasmodial activity against chloroquine resistant Plasmodium falciparum RKL9 infected in human erythrocyte assessed as inhibition of parasite growth incubated for 24 hrs by three fold serial dilution assay; type: functional

## C=C(C)[C@H](O)[C@@H](O)C[C@@H](C)C1=C2C[C@H](O)[C@H]3[C@@]4(C)CCC(=O)C(C)(C)[C@@H]4CC[C@]3(C)[C@@]2(C)CC1
[1]
  Retention_time: 23 min
[2]
  IC50: 6.98 µM

## COC(=O)[C@H](Cc1ccc(O)c(I)c1)NC(=O)C(=O)c1c[nH]c2ccccc12
[3]
  Activity: 20%

## Oc1c(/C=N/c2ccc(Oc3ccc(/N=C/c4cccc(CN5CCOCC5)c4O)cc3)cc2)cccc1CN1CCOCC1
[4]
  IC50: 2.28 µM

## Cc1ccc(-n2cc(C=O)c(-c3ccccc3)n2)cc1
[5]
  Activity: 85%

## CCN(Cc1cc(C2(C)OOC(c3ccncc3)OO2)ccc1O)c1ccccc1 (stereo unspecified)
[6]
  IC50: 5.3 µg/mL (≈ 13 µM)

## COC(=O)[C@H](Cc1ccc(O)c(-c2ccc3ccccc3c2)c1)NC(=O)C(=O)c1c[nH]c2ccccc12
[3]
  Activity: 60%

## CC1(C)C2CC=C(CC(=O)Nc3cccc4cccnc34)[C@@H]1C2
[7]
  EC50: 2.19 µM
[8]
  EC50: > 50 µM
[9]
  EC50: > 50 µM
[10]
  CC50 at 72 h: > 100 µM
[11]
  selectivity ratio: > 62.3

## CC1(C)C2CC=C(CC(=O)Nc3ccnc4ccccc34)[C@@H]1C2
[7]
  EC50: 26.4 µM
[8]
  EC50: 23.4 µM
[9]
  EC50: 13.9 µM
[10]
  CC50 at 72 h: 3.98 µM
[11]
  selectivity ratio: 0.2
[12]
  selectivity ratio: 0.2
[13]
  selectivity ratio: 0.3

## N=C(N)c1ccc(-c2cn(-c3ccc(C(=N)N)cc3)nn2)cc1
[14]
  IC50: 0.087 µM

## C/C1=C\[C@H](C)[C@@H](O)C[C@@H](O)/C(C)=C/[C@H](C)C[C@@H](C)CC[C@@H]([C@@H](C)C(=O)O)OC(=O)[C@@H](C)C1
[15]
  IC50: 0.128 µM
[16]
  IC50: 0.18 µM

## Oc1ccccc1/N=C/c1cccc(CN2CCOCC2)c1O
[4]
  IC50: 2.28 µM

## COC(=O)[C@H](Cc1ccc(O)c(-c2ccc(Br)cc2)c1)NC(=O)C(=O)c1c[nH]c2ccccc12
[3]
  Activity: 60%
[17]
  EC50: 3.7 µM

## CC1(C)C2CC=C(CC(=O)Nc3ccnc4cc(Cl)ccc34)[C@@H]1C2
[7]
  EC50: 17.1 µM
[8]
  EC50: 21.4 µM
[9]
  EC50: 7.84 µM
[10]
  CC50 at 72 h: 14.3 µM
[11]
  selectivity ratio: 0.8
[12]
  selectivity ratio: 0.7
[13]
  selectivity ratio: 1.8

## N=C(N)c1ccc(-c2cn(-c3cccc(C(=N)N)c3)nn2)cc1
[14]
  IC50: 0.276 µM

## COC(=O)[C@H](Cc1ccc(O)c(-c2ccccc2)c1)NC(=O)C(=O)c1c[nH]c2ccccc12
[3]
  Activity: 60%

## COC(=O)[C@H](Cc1ccc(O)c(C(=O)OCc2ccc(Nc3ccccc3)cc2)c1)NC(=O)C(=O)c1c[nH]c2ccccc12
[3]
  Activity: 60%

## C=CC(C)(C)c1cc(/C=C/C(=O)c2ccc(O)cc2)c(OC)cc1O [LICOAGROCHACONE A]
[18]
  IC50: 1.43 µg/mL (≈ 4.23 µM)

## COc1ccc(-c2[nH]c3c(NC(C)=O)cc(/C=C/c4ccc(F)cc4)cc3c2C(=O)C(F)(F)F)cc1
[19]
  IC50: 3.39 µM

## COC(=O)[C@H](Cc1ccc(O)c(-c2cccc(O)c2)c1)NC(=O)C(=O)c1c[nH]c2ccccc12
[3]
  Activity: 60%

## COC(=O)[C@H](Cc1ccc(O)c(-c2ccsc2)c1)NC(=O)C(=O)c1c[nH]c2ccccc12
[3]
  Activity: 60%

## CCN(Cc1cc(C2(C)OOC(c3cccs3)OO2)ccc1O)c1ccccc1 (stereo unspecified)
[6]
  IC50: 5.3 µg/mL (≈ 12.8 µM)

## COc1ccc(N2C(=O)[C@@H](Oc3ccc(Cl)cc3Cl)[C@H]2c2ccc(NC(=O)N3CCOCC3)cc2)cc1
[20]
  IC50: 21 µM

## CC(=O)Nc1cc(-c2ccc(F)cc2)cc2c(C(=O)C(F)(F)F)c(-c3ccc(F)cc3)[nH]c12
[19]
  IC50: 2.52 µM

## CC(=O)Nc1cc(/C=C/c2ccc(F)cc2)cc2cc(-c3ccc(F)cc3)[nH]c12
[19]
  IC50: 2.14 µM

## O=C(N/N=C/C=C/c1ccccc1)c1ccncc1
[21]
  inhibition (INH): 80%

## CCN(Cc1cc(C2(C)OOC(c3ccccn3)OO2)ccc1O)c1ccccc1 (stereo unspecified)
[6]
  IC50: 5.3 µg/mL (≈ 13 µM)

## COC(=O)[C@H](Cc1ccc(O)c(-c2ccc(C(C)(C)C)cc2)c1)NC(=O)C(=O)c1c[nH]c2ccccc12
[3]
  Activity: 60%
